From patent publication US12077503B2, “Substituted cyclic amides and their use as herbicides” (FMC CORPORATION, priority 2015, dated 2024) come the findings set out here.

Type in all cases: in vivo
The test system of experiment [1] is giant foxtail (Setaria faberii). The experiment in a line: Test A preemergence. The note with it: Setaria faberi, pre-emergence, 240 h, preemergence, 0 to 100 scale where 0 is no effect and 100 is complete control, read-out: Foxtail, Giant plant response rating; for pest or weed control at 125 g/ha: 125 g ai/ha; for pest or weed control at 500 g/ha: 500 g ai/ha. The method, boiled down: (§1)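 Seeded soil received test chemicals as a preemergence directed spray, and seedlings at one to two leaves, 2–10 cm tall, received them postemergence, in a non-phytotoxic, surfactant-containing solvent mixture. Pots were held in a greenhouse for approximately 10 d, then rated for injury from 0, no effect, to 100, complete control.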

The test system of a further experiment is rice (Oryra sativa). The experiment in a line: Test B flooded paddy test. The note with it: Oryza sativa, 250 g ai/ha, Flood; 0 to 100 scale where 0 is no effect and 100 is complete control; read-out: Rice plant response rating. The essentials:
(§2)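 2-leaf plants; pots flooded 3 cm over soil; cpd added to paddy water; depth held; greenhouse 13–15 d; visual rating vs controls, 0 = no effect, 100 = complete control.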

Experiment [2] relates to barnyardgrass (Echinochloa crus-galli). The experiment in a line: Test B flooded paddy test. The note with it: Echinochloa crus-galli, 250 g ai/ha, Flood; 0 to 100 scale where 0 is no effect and 100 is complete control; read-out: Barnyardgrass plant response rating. The essentials:
as §2

Experiment [3] relates to sedge, umbrella (small-flower umbrella sedge, Cyperus difformis). The experiment can be described thus: Test B flooded paddy test. The note with it: Cyperus difformis, 250 g ai/ha, Flood; 0 to 100 scale where 0 is no effect and 100 is complete control; read-out: Sedge, Umbrella plant response rating. The method, boiled down:
as §2

Experiment [4] concerns ducksalad (Heteranthera limosa). The experiment in a line: Test B flooded paddy test. The note with it: Heteranthera limosa, 250 g ai/ha, Flood; 0 to 100 scale where 0 is no effect and 100 is complete control; read-out: Ducksalad plant response rating. The method, boiled down: as §2
Experiment [5] has as its system wheat (Triticum aestivum). The experiment in a line: Test A postemergence. The note with it: Triticum aestivum, post-emergence, 240 h, postemergence; for plant injury at 125 g/ha: 125 g ai/ha, visual injury vs untreated controls after approx. 10 d, 0 = no effect, 100 = complete control, read-out: Wheat plant response rating (0 to 100 scale); for plant injury at 500 g/ha: 500 g ai/ha, 0 to 100 scale, 0 is no effect, 100 is complete control, read-out: Wheat plant response rating. The method, boiled down:
as §1

Experiment [6] deals with blackgrass (Alopecurus myosuroides). The experiment in a line: Test A postemergence. The note with it: Alopecurus myosuroides, post-emergence, 240 h, postemergence; for pest or weed control at 125 g/ha: 125 g ai/ha, visual injury vs untreated controls after approx. 10 d, 0 = no effect, 100 = complete control, read-out: Blackgrass plant response rating (0 to 100 scale); for pest or weed control at 500 g/ha: 500 g ai/ha, 0 to 100 scale, 0 is no effect, 100 is complete control, read-out: Blackgrass plant response rating. The method, boiled down: as §1

For another experiment, the system named is corn (Zea mays). The experiment in a line: Test A postemergence. The note with it: Zea mays, post-emergence, 240 h, postemergence; for plant injury at 125 g/ha: 125 g ai/ha, visual injury vs untreated controls after approx. 10 d, 0 = no effect, 100 = complete control, read-out: Corn plant response rating (0 to 100 scale); for plant injury at 500 g/ha: 500 g ai/ha, 0 to 100 scale, 0 is no effect, 100 is complete control, read-out: Corn plant response rating. The method, boiled down: as §1

The test system of experiment [7] is barnyardgrass (Echinochloa crus-galli). The experiment can be described thus: Test A postemergence. The note with it: Echinochloa crus-galli, post-emergence, 240 h, postemergence; for pest or weed control at 125 g/ha: 125 g ai/ha, visual injury vs untreated controls after approx. 10 d, 0 = no effect, 100 = complete control, read-out: Barnyardgrass plant response rating (0 to 100 scale); for pest or weed control at 500 g/ha: 500 g ai/ha, 0 to 100 scale, 0 is no effect, 100 is complete control, read-out: Barnyardgrass plant response rating. The essentials: as §1

Experiment [8] relates to ragweed (common ragweed, Ambrosia elatior). The experiment can be described thus: Test A postemergence. The note with it: Ambrosia artemisiifolia, post-emergence, 240 h, postemergence; for pest or weed control at 125 g/ha: 125 g ai/ha, visual injury vs untreated controls after approx. 10 d, 0 = no effect, 100 = complete control, read-out: Ragweed plant response rating (0 to 100 scale); for pest or weed control at 500 g/ha: 500 g ai/ha, 0 to 100 scale, 0 is no effect, 100 is complete control, read-out: Ragweed plant response rating. The method, boiled down: as §1

Experiment [9] deals with pigweed (Amaranthus retroflexus). The experiment can be described thus: Test A postemergence. The note with it: Amaranthus retroflexus, post-emergence, 240 h, postemergence; for pest or weed control at 125 g/ha: 125 g ai/ha, visual injury vs untreated controls after approx. 10 d, 0 = no effect, 100 = complete control, read-out: Pigweed plant response rating (0 to 100 scale); for pest or weed control at 500 g/ha: 500 g ai/ha, 0 to 100 scale, 0 is no effect, 100 is complete control, read-out: Pigweed plant response rating. The essentials: as §1

In experiment [10] the test system is ryegrass, Italian (Italian ryegrass, Lolium multiflorum). The experiment can be described thus: Test A postemergence. The note with it: Lolium multiflorum, post-emergence, 240 h, postemergence; for pest or weed control at 125 g/ha: 125 g ai/ha, visual injury vs untreated controls after approx. 10 d, 0 = no effect, 100 = complete control, read-out: Ryegrass, Italian plant response rating (0 to 100 scale); for pest or weed control at 500 g/ha: 500 g ai/ha, 0 to 100 scale, 0 is no effect, 100 is complete control, read-out: Ryegrass, Italian plant response rating. The method, boiled down: as §1

Experiment [11] deals with giant foxtail (Setaria faberii). The experiment in a line: Test A postemergence. The note with it: Setaria faberi, post-emergence, 240 h, postemergence; for pest or weed control at 125 g/ha: 125 g ai/ha, visual injury vs untreated controls after approx. 10 d, 0 = no effect, 100 = complete control, read-out: Foxtail, Giant plant response rating (0 to 100 scale); for pest or weed control at 500 g/ha: 500 g ai/ha, 0 to 100 scale, 0 is no effect, 100 is complete control, read-out: Foxtail, Giant plant response rating. The method, boiled down: as §1

Experiment [12] has as its system Galium (catchweed bedstraw, Galium aparine). The experiment in a line: Test A postemergence. The note with it: Galium, post-emergence, 240 h, postemergence; for pest or weed control at 125 g/ha: 125 g ai/ha, visual injury vs untreated controls after approx. 10 d, 0 = no effect, 100 = complete control, read-out: Galium plant response rating (0 to 100 scale); for pest or weed control at 500 g/ha: 500 g ai/ha, 0 to 100 scale, 0 is no effect, 100 is complete control, read-out: Galium plant response rating. The method, boiled down:
as §1

[13] abbreviates: visual injury rating, approximately 10 d.

Consider `Cc1nc([C@H]2CNC(=O)[C@@H]2C(=O)Nc2ccccc2F)cs1` [Compound 1179], for which the pest or weed control at 125 g/ha in experiment [1] (approx. 10 d), in experiment [6], in experiment [7], in [8], in [9] and in experiment [10] was 0% throughout. For the same molecule, the pest or weed control at 125 g/ha in experiment [11] and in experiment [12] was 0% in each case. Further, the pest or weed control at 500 g/ha in [1], in [6], in experiment [7], in [8], in [9] and in experiment [10] was 0% each time. Besides, the pest or weed control at 500 g/ha in [11] and in experiment [12] was 0% throughout. For the same molecule, the pest or weed control at 250 g/ha stood at 0% in the experiment with rice (Oryra sativa), 0% in experiment [2], 0% in experiment [3] and 40% in experiment [4]. In addition, the plant injury at 125 g/ha (in experiment [5]; with corn (Zea mays)) was 0% in each case. In addition, the plant injury at 500 g/ha (in [5]; with corn (Zea mays)) was 0% in each case.

In the case of `O=C1NC[C@H](c2nccs2)[C@H]1C(=O)Nc1ccccc1F` [Compound 1181], the pest or weed control at 125 g/ha in experiment [1] (approx. 10 d), in experiment [6], in [7], in experiment [8], in experiment [9] and in experiment [10] was 0% each time. In addition, the pest or weed control at 125 g/ha in experiment [11] and in experiment [12] was 0% in each case. Also, the pest or weed control at 500 g/ha in [1], in [6], in experiment [7], in experiment [8], in experiment [9] and in [10] was 0% each time. For the same molecule, the pest or weed control at 500 g/ha in [11] and in experiment [12] was 0% each time. For the same molecule, the pest or weed control at 250 g/ha in the experiment with rice (Oryra sativa) came out at 0%; in experiment [2] it was 0%; in experiment [3], 0%; in experiment [4], 35%. The plant injury at 125 g/ha (in experiment [5]; in the experiment on corn (Zea mays)) was 0% throughout. The plant injury at 500 g/ha (in experiment [5]; in the experiment with corn (Zea mays)) was 0% each time.

Take `Cc1ccc([C@H]2CCN(C)C(=O)[C@@H]2C(=O)Nc2ccc(F)c(F)c2F)cc1` [Compound 1221]: the pest or weed control at 125 g/ha stood at 90% in experiment [1] (setting [13]); 60% in experiment [6]; 30% in experiment [7]; 0% in experiment [8]; 0% in [9]; 20% in [10]. Moreover, the pest or weed control at 125 g/ha is 90% in [11] and 40% in [12]. For the same molecule, the pest or weed control at 500 g/ha was determined as 100% in experiment [1]; 70% in [6]; 60% in experiment [7]; 20% in experiment [8]; 0% in [9]; 70% in experiment [10]. In addition, the pest or weed control at 500 g/ha in experiment [11] was found to be 90%; in [12] it was 60%. Besides, the pest or weed control at 250 g/ha in the experiment on rice (Oryra sativa) came out at 0%; in experiment [2] it was 85%; in experiment [3], 0%; in experiment [4] it was 100%. Besides, the results for the plant injury at 125 g/ha (in experiment [5]; in the experiment on corn (Zea mays)) were 20% and 0%, respectively. The plant injury at 500 g/ha (in [5]; in the experiment on corn (Zea mays)) was 60% in each case.

Consider `CSc1ccccc1NC(=O)[C@H]1C(=O)N(C)CC[C@@H]1c1ccc(C)cc1` [Compound 1222], for which the pest or weed control at 125 g/ha in [1] (setting [13]), in experiment [6], in experiment [7], in experiment [8], in experiment [9] and in experiment [10] was 0% throughout. Further, the pest or weed control at 125 g/ha was 20% in [11] and 0% in experiment [12]. Besides, the pest or weed control at 500 g/ha was determined as 60% in experiment [1]; 0% in experiment [6]; 0% in experiment [7]; 0% in experiment [8]; 0% in experiment [9]; 0% in [10]. Further, the pest or weed control at 500 g/ha in experiment [11] stood at 70%; in experiment [12] it was 0%. For the same molecule, the pest or weed control at 250 g/ha with rice (Oryra sativa) amounted to 15%; in [2] it was 0%; in [3], 70%; in experiment [4] it was 65%. In addition, the plant injury at 125 g/ha (in experiment [5]; in the experiment on corn (Zea mays)) was 0% throughout. Also, the plant injury at 500 g/ha (in experiment [5]; in the experiment on corn (Zea mays)) was 0% each time.
